Measured values published in patent US20080124413A1, “NOVEL COMPOSITION CONTAINING EXTRACTS OF BUTYROSPERMUM PARKII AND THE USE OF SUCH A COMPOSITION FOR PREPARING A MEDICAMENT OR A DIETARY SUPPLEMENT FOR THE TREATMENT OR PREVENTION OF INFLAMMATION […] OR PAIN” (BSP Pharma A/S, priority 1999, published 2008).
Where two headings read alike, the source gives them in different places.

Legend:
rat = settings: The Merck Index; cited from earlier work
[1] = test system: BALB/c mouse arthritis induced by collagen mono-clonal antibody (mAb) and lipopolysaccharide; assay type: in vivo; settings: cyclophosphamide 10 mg/kg x3 orally, p<0.05 Wilcoxon
Protocol: BPC was dissolved in 100% corn oil. […] Dosing volume was 5 ml/kg.
In this study, male BALB/c mice weighing 20±1 grams were used. Space allocation for 5 mice was 45×23×15 cm. The animals were housed in APEC® (Allentown Gaging, Allentown, N.J. 08501, U.S.A.) cages and maintained in a hygienic environment under controlled temperature (22° C.-24° C.) and humidity (60%-80%) with 12-hours light/dark cycles for at least one week prior to being used. Free access to standard lab chow for mice and tap water was granted. All aspects of this work including housing, experimentation and disposal of animals were performed in general according to the International Guiding Principles for Biomedical Research Involving Animals (CIOMS Publication No. ISBN 92 90360194, 1985).
The study was performed according to the method of Terato et al. (Autoimmunity, 22:137-147, 1995).
Groups of 5 BALB/c mice, 6-8 weeks of age, were used for the induction of arthritis by monoclonal antibodies (mAbs) and lipopolysaccharide (LPS). […] This was followed by intravenous 25 μg of LPS 72 hours later (day 3). From day 3, test substances were administered orally once daily for 3 consecutive days. At day 5, one or two paws (particularly the hind) began to appear red and swollen, and from day 7, arthritis symptoms of the two hind paws became severely red and swollen in untreated mice. A plethysmometer (Ugo Basile Cat # 7150) with water cell (12 mm diameter) was used for the measurement of increase in both hind paw volumes at day 7, 10, 14 and 17. The percent of inhibition of increased paw volume was calculated as follows:
Inhibition (%): [1−(Tn−To)/(Cn−Co)]×100
Co (Cn): Volume of day 0 (day n) in vehicle control (both hind paws summed)
To (Tn): Volume of day 0 (day n) in test compound-treated group (both hind paws summed)
Wilcoxon rank sum test for paired differences was used for comparing swelling in the test compound treated groups with swelling in the control group.

## O=P1(N(CCCl)CCCl)NCCCO1 (stereo not shown) [cyclophosphamide]
rat
  LD50: 94 mg/kg
[1]; day 10
  reduction of hind paw edema relative to the vehicle-treated control group: 79%
[1]; day 14
  reduction of hind paw edema relative to the vehicle-treated control group: 91%
[1]; day 17
  reduction of hind paw edema relative to the vehicle-treated control group: 90%
